Laboratory results published in US9637453B2, “3-spirocyclic-6-hydroxamic acid tetralins as HDAC inhibitors” (Forma Therapeutics, Inc., priority 2015, dated 2017).

How the values were obtained:
[1] = biological target: T1, Full length human recombinant HDAC11 (Homo sapiens, UniProt Q96DB2); experiment: In vitro histone deacetylase assay, enzymatic HDAC11 (electrophoretic mobility shift assay); type: biochemical; conditions: 10 nM HDAC11; 2 μM peptide substrate FAM-RHKK(tri-fluor-Ac)—NH2; 25° C.; 12 concentrations; read-out: HDAC11 Activity Range (IC50)
T1 construct: Full length human recombinant HDAC6 and HDAC11 proteins were expressed in baculoviral system
T1 sequence (Q96DB2 1-347): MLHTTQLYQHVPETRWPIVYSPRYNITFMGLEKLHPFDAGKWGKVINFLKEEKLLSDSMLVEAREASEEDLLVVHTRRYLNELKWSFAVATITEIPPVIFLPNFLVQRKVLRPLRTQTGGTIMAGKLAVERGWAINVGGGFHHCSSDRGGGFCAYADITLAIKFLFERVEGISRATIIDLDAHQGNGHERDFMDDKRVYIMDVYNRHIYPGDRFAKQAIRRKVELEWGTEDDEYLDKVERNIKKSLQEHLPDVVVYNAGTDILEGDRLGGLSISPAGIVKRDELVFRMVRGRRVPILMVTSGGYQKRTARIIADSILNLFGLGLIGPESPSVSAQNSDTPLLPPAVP
Method in brief: (§1)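 Baculovirus-expressed full-length enzymes (HDAC6 1 nM, FAM-RHKK(Ac)-NH2; HDAC11 10 nM, FAM-RHKK(tri-fluor-Ac)-NH2), 2 μM substrate, HEPES pH 7.5, 25°C, 12-point 3× dilutions. Product/substrate separated by microfluidic mobility shift after SDS quench; IC50 from 4-parameter fit, reported as +/++/+++ bins.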

[2] = biological target: T2, Full length human recombinant HDAC6 (Homo sapiens, UniProt Q9UBN7); experiment: In vitro histone deacetylase assay, enzymatic HDAC6 (electrophoretic mobility shift assay); type: biochemical; conditions: 1 nM HDAC6; 2 μM peptide substrate FAM-RHKK(Ac)—NH2; 25° C.; 12 concentrations; read-out: HDAC6 Activity Range (IC50)
T2 construct: Full length human recombinant HDAC6 and HDAC11 proteins were expressed in baculoviral system
T2 sequence (Q9UBN7 1-1215): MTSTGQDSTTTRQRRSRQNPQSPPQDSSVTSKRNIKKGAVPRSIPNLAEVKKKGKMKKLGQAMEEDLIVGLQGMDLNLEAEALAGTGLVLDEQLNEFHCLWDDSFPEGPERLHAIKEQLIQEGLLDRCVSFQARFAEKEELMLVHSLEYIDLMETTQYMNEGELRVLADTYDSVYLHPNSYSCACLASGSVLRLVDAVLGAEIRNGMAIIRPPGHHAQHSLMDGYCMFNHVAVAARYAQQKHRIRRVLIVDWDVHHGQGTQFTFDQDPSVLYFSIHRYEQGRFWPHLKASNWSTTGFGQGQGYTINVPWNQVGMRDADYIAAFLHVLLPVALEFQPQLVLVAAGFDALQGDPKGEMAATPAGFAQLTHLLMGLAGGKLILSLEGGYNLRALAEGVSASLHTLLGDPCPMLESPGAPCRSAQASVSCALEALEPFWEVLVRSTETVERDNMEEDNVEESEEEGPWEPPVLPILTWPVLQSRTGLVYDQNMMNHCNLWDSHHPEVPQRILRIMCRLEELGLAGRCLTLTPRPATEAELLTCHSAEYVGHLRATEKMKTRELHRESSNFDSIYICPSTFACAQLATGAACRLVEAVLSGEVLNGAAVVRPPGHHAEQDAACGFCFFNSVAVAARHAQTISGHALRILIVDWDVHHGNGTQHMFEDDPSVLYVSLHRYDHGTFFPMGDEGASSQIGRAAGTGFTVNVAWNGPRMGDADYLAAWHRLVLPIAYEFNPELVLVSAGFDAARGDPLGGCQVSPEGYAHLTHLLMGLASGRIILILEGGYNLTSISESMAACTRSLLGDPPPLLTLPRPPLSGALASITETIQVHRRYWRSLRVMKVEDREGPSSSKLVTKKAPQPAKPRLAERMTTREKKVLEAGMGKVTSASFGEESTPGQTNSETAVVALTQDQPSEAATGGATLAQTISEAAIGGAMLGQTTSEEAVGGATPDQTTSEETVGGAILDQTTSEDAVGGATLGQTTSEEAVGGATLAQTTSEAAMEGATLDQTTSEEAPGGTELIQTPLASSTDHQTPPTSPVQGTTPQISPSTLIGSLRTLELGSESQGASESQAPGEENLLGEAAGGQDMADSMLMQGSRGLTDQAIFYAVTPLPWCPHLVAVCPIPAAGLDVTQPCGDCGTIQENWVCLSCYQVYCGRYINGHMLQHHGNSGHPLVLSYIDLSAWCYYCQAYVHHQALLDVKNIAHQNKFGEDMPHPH
Method in brief: as §1

Row | SMILES | IC50 [1] [nM] | IC50 [2] [nM]
1 | O=C(NO)c1ccc2c(c1)C[C@@]1(CC2)CCN(Cc2c(Cl)cccc2Cl)C1=O [Compound I-68, (S)-1′-(2,6-dichlorobenzyl)-N-hydroxy-2′-oxo-3,4-dihydro-1H-spiro[naphthalene-2,3′-pyrrolidine]-7-carboxamide] | > 500 | ≤ 100
2 | COc1cccc(CN2CC[C@@]3(CCc4ccc(C(=O)NO)cc4C3)C2=O)c1 [Compound I-69, (S)—N-hydroxy-1′-(3-methoxybenzyl)-2′-oxo-3,4-dihydro-1H-spiro[naphthalene-2,3′-pyrrolidine]-7-carboxamide] | > 500 | ≤ 100
3 | O=C(NO)c1ccc2c(c1)C[C@@]1(CC2)CCN(Cc2cccnc2)C1=O [Compound I-70, (S)—N-hydroxy-2′-oxo-1′-(pyridin-3-ylmethyl)-3,4-dihydro-1H-spiro[naphthalene-2,3′-pyrrolidine]-7-carboxamide] | > 500 | ≤ 100
4 | O=C(NO)c1ccc2c(c1)C[C@@]1(CC2)CCN(Cc2ccccn2)C1=O [Compound I-71, (S)—N-hydroxy-2′-oxo-1′-(pyridin-2-ylmethyl)-3,4-dihydro-1H-spiro[naphthalene-2,3′-pyrrolidine]-7-carboxamide] | > 500 | ≤ 100
5 | O=C(NO)c1ccc2c(c1)C[C@@]1(CC2)CCN(Cc2cccc(F)c2)C1=O [Compound I-72, (S)-1′-(3-fluorobenzyl)-N-hydroxy-2′-oxo-3,4-dihydro-1H-spiro[naphthalene-2,3′-pyrrolidine]-7-carboxamide] | > 500 | ≤ 100
6 | O=C(NO)c1ccc2c(c1)C[C@@]1(CC2)CCN(Cc2ccc(OC(F)(F)F)cc2)C1=O [Compound I-73, (S)—N-hydroxy-2′-oxo-1′-(4-(trifluoromethoxy)benzyl)-3,4-dihydro-1H-spiro[naphthalene-2,3′-pyrrolidine]-7-carboxamide] | > 500 | ≤ 100
7 | O=C(NO)c1ccc2c(c1)C[C@@]1(CC2)CCN(Cc2cccc(Cl)c2)C1=O [Compound I-74, (S)-1′-(3-chlorobenzyl)-N-hydroxy-2′-oxo-3,4-dihydro-1H-spiro[naphthalene-2,3′-pyrrolidine]-7-carboxamide] | > 500 | ≤ 100
8 | COc1ccc(CN2CC[C@@]3(CCc4ccc(C(=O)NO)cc4C3)C2=O)cc1 [Compound I-75, (S)—N-hydroxy-1′-(4-methoxybenzyl)-2′-oxo-3,4-dihydro-1H-spiro[naphthalene-2,3′-pyrrolidine]-7-carboxamide] | > 500 | ≤ 100
9 | O=C(NO)c1ccc2c(c1)C[C@@]1(CC2)CCN(Cc2ccccc2F)C1=O [Compound I-76, (S)-1′-(2-fluorobenzyl)-N-hydroxy-2′-oxo-3,4-dihydro-1H-spiro[naphthalene-2,3′-pyrrolidine]-7-carboxamide] | > 500 | ≤ 100
10 | O=C(NO)c1ccc2c(c1)C[C@@]1(CC2)CCN(Cc2ccc3ccccc3c2)C1=O [Compound I-77, (S)—N-hydroxy-1′-(naphthalen-2-ylmethyl)-2′-oxo-3,4-dihydro-1H-spiro[naphthalene-2,3′-pyrrolidine]-7-carboxamide] | 100 to 500 | ≤ 100

Second part, the molecule after the results:

Row | IC50 [1] [nM] | IC50 [2] [nM] | SMILES
11 | > 500 | ≤ 100 | O=C(NO)c1ccc2c(c1)C[C@@]1(CC2)CCN(Cc2ccccc2OC(F)F)C1=O [Compound I-78, (S)-1′-(2-(difluoromethoxy)benzyl)-N-hydroxy-2′-oxo-3,4-dihydro-1H-spiro[naphthalene-2,3′-pyrrolidine]-7-carboxamide]
12 | > 500 | ≤ 100 | CCCN1CC[C@]2(CCc3ccc(C(=O)NO)cc3C2)C1=O [Compound I-79, (R)—N-hydroxy-2′-oxo-1′-propyl-3,4-dihydro-1H-spiro[naphthalene-2,3′-pyrrolidine]-7-carboxamide]
13 | > 500 | ≤ 100 | O=C(NO)c1ccc2c(c1)C[C@]1(CC2)CCN(CCCO)C1=O [Compound I-80, (R)—N-hydroxy-1′-(3-hydroxypropyl)-2′-oxo-3,4-dihydro-1H-spiro[naphthalene-2,3′-pyrrolidine]-7-carboxamide]
14 | > 500 | ≤ 100 | O=C(NO)c1ccc2c(c1)C[C@]1(CC2)CCN(CC2CCC2)C1=O [Compound I-81, (R)-1′-(cyclobutylmethyl)-N-hydroxy-2′-oxo-3,4-dihydro-1H-spiro[naphthalene-2,3′-pyrrolidine]-7-carboxamide]
15 | 100 to 500 | ≤ 100 | CC(C)CCN1CC[C@]2(CCc3ccc(C(=O)NO)cc3C2)C1=O [Compound I-82, (R)—N-hydroxy-1′-isopentyl-2′-oxo-3,4-dihydro-1H-spiro[naphthalene-2,3′-pyrrolidine]-7-carboxamide]
16 | > 500 | ≤ 100 | CC#CCN1CC[C@]2(CCc3ccc(C(=O)NO)cc3C2)C1=O [Compound I-83, (R)-1′-(but-2-yn-1-yl)-N-hydroxy-2′-oxo-3,4-dihydro-1H-spiro[naphthalene-2,3′-pyrrolidine]-7-carboxamide]
17 | > 500 | ≤ 100 | COCCN1CC[C@]2(CCc3ccc(C(=O)NO)cc3C2)C1=O [Compound I-84, (R)—N-hydroxy-1′-(2-methoxyethyl)-2′-oxo-3,4-dihydro-1H-spiro[naphthalene-2,3′-pyrrolidine]-7-carboxamide]
18 | > 500 | ≤ 100 | O=C(NO)c1ccc2c(c1)C[C@]1(CC2)CCN(CC2CCOCC2)C1=O [Compound I-85, (R)—N-hydroxy-2′-oxo-1′-((tetrahydro-2H-pyran-4-yl)methyl)-3,4-dihydro-1H-spiro[naphthalene-2,3′-pyrrolidine]-7-carboxamide]
19 | ≤ 100 | ≤ 100 | O=C(NO)c1ccc2c(c1)C[C@]1(CC2)CCN(C/C=C/c2ccccc2)C1=O [Compound I-86, (R)-1′-cinnamyl-N-hydroxy-2′-oxo-3,4-dihydro-H-spiro[naphthalene-2,3′-pyrrolidine]-7-carboxamide]
20 | ≤ 100 | ≤ 100 | Cc1ccccc1CN1CC[C@]2(CCc3ccc(C(=O)NO)cc3C2)C1=O [Compound I-87, (R)—N-hydroxy-1′-(2-methylbenzyl)-2′-oxo-3,4-dihydro-1H-spiro[naphthalene-2,3′-pyrrolidine]-7-carboxamide]
21 | ≤ 100 | ≤ 100 | O=C(NO)c1ccc2c(c1)C[C@]1(CC2)CCN(Cc2ccccc2C(F)(F)F)C1=O [Compound I-88, (R)—N-hydroxy-2′-oxo-1′-(2-(trifluoromethyl)benzyl)-3,4-dihydro-1H-spiro[naphthalene-2,3′-pyrrolidine]-7-carboxamide]
22 | ≤ 100 | ≤ 100 | O=C(NO)c1ccc2c(c1)C[C@]1(CC2)CCN(Cc2ccccc2Cl)C1=O [Compound I-89, (R)-1′-(2-chlorobenzyl)-N-hydroxy-2′-oxo-3,4-dihydro-1H-spiro[naphthalene-2,3′-pyrrolidine]-7-carboxamide]
23 | ≤ 100 | ≤ 100 | O=C(NO)c1ccc2c(c1)C[C@]1(CC2)CCN(Cc2ccccc2OC(F)(F)F)C1=O [Compound I-90, (R)—N-hydroxy-2′-oxo-1′-(2-(trifluoromethoxy)benzyl)-3,4-dihydro-1H-spiro[naphthalene-2,3′-pyrrolidine]-7-carboxamide]
